Legend:
[1] = intrinsic clearance in liver microsomes; details: mouse
human CHT = molecular target: T1, human CHT (Homo sapiens, UniProt Q9GZV3, L531A/V532A); assay type: cell-based
T1 sequence (Q9GZV3 1-580 L531A/V532A): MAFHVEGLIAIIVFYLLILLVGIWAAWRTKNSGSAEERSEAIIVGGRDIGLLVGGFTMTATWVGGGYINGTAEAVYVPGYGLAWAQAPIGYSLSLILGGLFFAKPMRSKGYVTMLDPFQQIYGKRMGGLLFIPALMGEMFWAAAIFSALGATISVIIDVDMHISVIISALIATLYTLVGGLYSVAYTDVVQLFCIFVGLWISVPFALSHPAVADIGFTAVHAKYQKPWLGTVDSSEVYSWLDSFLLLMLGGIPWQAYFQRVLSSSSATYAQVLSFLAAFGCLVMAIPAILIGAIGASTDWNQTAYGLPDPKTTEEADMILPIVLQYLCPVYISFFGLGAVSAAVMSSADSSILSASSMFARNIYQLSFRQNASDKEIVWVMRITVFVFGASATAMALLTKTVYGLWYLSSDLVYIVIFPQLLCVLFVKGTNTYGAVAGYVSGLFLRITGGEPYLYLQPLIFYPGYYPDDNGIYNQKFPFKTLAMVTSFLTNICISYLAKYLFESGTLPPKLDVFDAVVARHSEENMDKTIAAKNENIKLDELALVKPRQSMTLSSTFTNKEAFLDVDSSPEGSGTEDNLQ

[2] = cassette tissue distribution study in mice; assay type: in vivo, mouse; details: 1.0 mg/kg per compound intraperitoneal cassette dose, n = 3
[3] = test system: dopamine transporter (DAT); details: at the highest concentration tested; cited from earlier work

| Structure (SMILES) | CLint scaled [1] [mL/min/kg] | CHT inhibitory activity (human CHT) | also measured |
| --- | --- | --- | --- |
| COc1ccc(C(=O)NCc2csc(C)n2)cc1OC1CCN(C(C)C)CC1 [Compound 10b] | 979 | – | – |
| COc1ccc(C(=O)NCc2ccc(C)s2)cc1OC1CCN(C(C)C)CC1 [Compound 10c] | – | – | activity at the high choline concentration (human CHT; high (10 μM) choline): modest inhibitory activity; activity at the low choline concentration (human CHT; low (100 nM) choline): inactive |
| COc1ccc(C(=O)NCc2cc(C(C)C)no2)cc1OC1CCN(C(C)C)CC1 [Compound 10e] | 781 | – | Brain concentration [2]: BLQ |
| CCn1nc(C)c(CNC(=O)c2ccc(OC)c(OC3CCN(C(C)C)CC3)c2)c1C [Compound 10f] | 29.9 | – | Brain concentration [2]: BLQ |
| COc1ccc(C(=O)NC(C)Cc2ccccn2)cc1OC1CCN(C(C)C)CC1 (stereo not drawn) [Compound 10k] | 106 | – | – |
| COc1ccc(C(=O)NCc2cc(C(C)C)no2)cc1OC1CCNCC1 [Compound 10l] | – | much less active | – |
| COc1ccc(C(=O)NCc2cc(C(C)C)no2)cc1OC1CCN(C)CC1 [Compound 10m, N-((3-isopropylisoxazol-5-yl)methyl)-4-methoxy-3-((1-methylpiperidin-4-yl)oxy)benzamide] | 43.7 | equipotent with the isopropyl analog | DAT inhibitory activity [3]: did not show any inhibitory activity |
| COc1ccc(C(=O)NCc2cc(C(C)C)no2)cc1OC1CCCN(C)C1 (stereo not drawn) [Compound 10n] | – | tolerated, but less active | – |
| COc1ccc(C(=O)NCc2cc(C(C)C)no2)cc1OC1CCCCC1 [Compound 10o] | – | inactive | – |
| COc1ccc(C(=O)NCc2cc(C(C)C)no2)cc1OC1CCCC1 [Compound 10p] | – | inactive | – |
| COc1ccc(C(=O)NCc2cc(C(C)C)no2)cc1OCCN1CCCCC1 [Compound 10q] | 167 | – | – |
| COc1ccc(C(=O)NCc2cc(C(C)C)no2)cc1OCCN1CCOCC1 [Compound 10r] | – | – | fold less active than the piperidine analog (human CHT; morpholine 10r versus piperidine 10q): ~ 10 fold |
| COc1ccc(C(=O)NCc2cc(C(C)C)no2)cc1O [Compound 10v] | – | inactive | – |

Source: PMC4385452 (Bioorganic & medicinal chemistry letters, 2015)
